Assays:
[1] = tested on: E. coli, S. salivarius, L. casei, B. longum, M. luteus; assay: MIC assay, summary over all bacterial strains tested; assay type: cell-based; details: any of the strains tested
Description: The bioactivity of macrolide compounds against 4 strains of common gut bacteria (Escherichia coli, Streptococcus salivarius subsp. salivarius, Lactobacillus casei and Bifidobacterium longum subsp. infantis) and common mammalian skin isolate Micrococcus luteus, was assessed using the Minimum Inhibitory Concentration (MIC) assay. Bacterial strains were purchased from DSMZ (Brunswick, Germany) except M. luteus which was obtained from NCIMB, and stored in 20% glycerol at −80° C. Stock solutions (100% DMSO) of positive controls (azithromycin and erythromycin), and of test compounds 1 and 2 were diluted in broth to working stock concentrations of 256 μg/ml (final assay testing concentration range 128 μg/ml to 0.00391 μg/ml). Stock solutions of all other compounds were diluted in broth to working stock concentrations of 128 μg/ml (final assay testing concentration range 64 μg/ml to 0.00195 μg/ml). Bacterial strains were cultivated in appropriate broth in an anaerobic chamber at 37° C., except for M. luteus which was incubated aerobically at 37° C. 18 h cultures were diluted in broth to an OD595 of 0.1 and then further diluted 1:10. In 96-well plates, in duplicate, 200 μl working stock of test compound was transferred to well 1 and serially diluted (1:2) in broth. 100 μl bacterial suspension was aliquoted into each well and mixed thoroughly. Appropriate sterility controls were included and plates were incubated in an anaerobic chamber, or aerobically (M. luteus) at 37° C. for 18 h. The MIC was determined to be the concentration of test compound in the first well with no visible growth.

[2] = Human microsome stability assay; assay type: in vitro ADME; details: pH 7.4, human liver microsomes, read-out: T½
Description: Rate of metabolism in microsomes was tested as follows:
Human liver microsomes were diluted with buffer C (0.1 M Potassium Phosphate buffer, 1.0 mM EDTA, pH 7.4) to a concentration of […]. Microsomal stability studies were carried out by adding 30 μL of 1.5 μM compound spiking solution to wells (1.5 μL of 500 μM spiking solution (10 μL of 10 mM DMSO stock solution into 190 μL ACN to eventually generate final test concentration of 1 uM) and 18.75 μL of 20 mg/mL liver microsomes into 479.75 μL of Buffer C). All samples were pre-incubated for approximately 15 minutes at 37° C. Following this, the reaction was initiated by adding 15 μL of the NADPH solution (6 mM) with gentle mixing. Aliquots (40 μL) were removed at 0, 5, 15, 30 and 45 minutes and quenched with ACN containing internal standard (135 μL). Protein was removed by centrifugation (4000 rpm, 15 min) and the sample plate analysed for compound concentration by LC-MS/MS. Half-lives were then calculated by standard methods, comparing the concentration of analyte with the amount originally present.
The metabolic stability of the compounds of the invention was assessed in a standard human microsome stability assay (see general methods).

[3] = Caco-2 bidirectional permeability assay; assay type: in vitro ADME; details: human, Caco-2; B to A permeability divided by A to B permeability
Description: (§1) 10 μM Test article was added to the apical (A) surface of Caco-2 cell monolayers (in HBSS buffer with 0.3% DMSO and 5 μM LY at 37 degrees C.) and compound permeation into the basolateral (B) compartment measured following 90 minutes incubation. This was also performed in the reverse direction (basolateral to apical) to investigate active transport. LC-MS/MS is used to quantify levels of both the test and standard control compounds. Efflux ratio was calculated by dividing the B to A permeability by the A to B permeability.
(§2) Drug permeability:Papp=(VA/(Area×time))×([drug]accepter/(([drug]initial,donor)×Dilution Factor)
(§3) The permeability of the compounds of the invention was assessed in a standard caco-2 bidirectional permeability assay (see general methods).

Caco-2 cell monolayers = assay: Caco-2 bidirectional permeability assay; assay type: in vitro ADME; details: Caco-2, 10 μM test article, 90 minutes
Description: as §1, §2, §3

human TLR2 = target: T1, human TLR2 (Homo sapiens, UniProt O60603); assay: TLR2 reporter assay (HEK-293-TLR, SEAP); assay type: cell-based; details: concentrations up to 20 uM
T1 construct: host or cells: recombinant HEK-293-TLR cell lines
T1 sequence (O60603 21-784): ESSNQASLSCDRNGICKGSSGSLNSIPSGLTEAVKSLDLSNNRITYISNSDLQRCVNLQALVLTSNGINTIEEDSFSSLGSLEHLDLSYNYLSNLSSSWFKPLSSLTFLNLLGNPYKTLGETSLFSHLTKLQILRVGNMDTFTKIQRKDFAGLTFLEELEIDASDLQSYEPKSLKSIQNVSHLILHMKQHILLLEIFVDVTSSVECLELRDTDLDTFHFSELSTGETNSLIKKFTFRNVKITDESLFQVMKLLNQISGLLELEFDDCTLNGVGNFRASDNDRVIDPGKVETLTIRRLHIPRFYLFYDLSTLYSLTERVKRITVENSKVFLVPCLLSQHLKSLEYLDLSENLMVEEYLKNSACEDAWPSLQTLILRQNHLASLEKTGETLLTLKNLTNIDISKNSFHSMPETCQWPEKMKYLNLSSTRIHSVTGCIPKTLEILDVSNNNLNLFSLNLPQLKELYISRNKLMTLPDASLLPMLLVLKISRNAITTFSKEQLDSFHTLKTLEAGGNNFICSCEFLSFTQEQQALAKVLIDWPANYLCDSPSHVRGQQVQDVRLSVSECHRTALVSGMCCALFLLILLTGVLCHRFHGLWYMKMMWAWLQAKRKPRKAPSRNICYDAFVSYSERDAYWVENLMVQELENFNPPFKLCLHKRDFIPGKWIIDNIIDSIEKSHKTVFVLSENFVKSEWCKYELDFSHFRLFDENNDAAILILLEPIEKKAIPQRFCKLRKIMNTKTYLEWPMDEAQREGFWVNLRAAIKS
Description: Samples and controls were tested in duplicate on recombinant HEK-293-TLR cell lines using a cell reporter assay at Invivogen using their standard assay conditions. These cell lines functionally over-express human TLR2 protein as well as a reporter gene which is a secreted alkaline phosphatase (SEAP). The production of this reporter gene is driven by an NFkB inducible promoter. The TLR reporter cell lines activation results are given as optical density values (OD).
20 μl of each test article were used to stimulate the hTLR2 reporter cell lines in a 200 μl of final reaction volume. Samples were tested in duplicate, with at least two concentrations tested—20 uM and 10 uM.
Compounds were tested using a TLR2 reporter assay (see general methods) that measured for stimulation of the TLR2 receptor. Stimulatory effect was measured as an increase in optical density (OD) due to release of secreted alkaline phosphatase (SEAP) and is shown in table 4: […]

CC1O[C@@H](O[C@H]2[C@H](C)[C@@H](O)[C@](C)(O)C[C@@H](C)C(=O)[C@H](C)[C@@H](O)[C@@H](C)[C@@H](C)OC(=O)[C@@H]2C)CC(N(C)C)[C@@H]1O (some centres unmarked) [Compound 8]
antibacterial activity against the bacterial strains tested (in words) [1]: no antibacterial activity

CC[C@H]1OC(=O)[C@H](C)[C@@H](O[C@H]2C[C@@](C)(OC)[C@@H](O)[C@H](C)O2)[C@H](C)[C@@H](O[C@@H]2O[C@H](C)C[C@H](N(C)C)[C@H]2O)[C@](C)(O)C[C@@H](C)CN(C)[C@H](C)[C@@H](O)[C@]1(C)O [Azithromycin, reference compound]
half-life at 1 uM [2]: 4.08 h
efflux ratio at 90 minutes, 10 μM [3]: > 78
Papp (Caco-2 cell monolayers): <0.14 × 10^6/cm · s^−1
TLR2 stimulation (in words) (human TLR2): little or no stimulation
antibacterial activity against the bacterial strains tested (in words) [1]: potent activity

CC[C@H]1OC(=O)[C@H](C)[C@@H](O[C@H]2CC(N(C)C)[C@H](O)C(C)O2)[C@H](C)[C@@H](O)[C@](C)(O)C[C@@H](C)N(C)C[C@H](C)[C@@H](O)[C@]1(C)O (some centres unmarked) [Compound 17]
TLR2 stimulation (in words) (human TLR2): stimulated TLR2 at concentrations down to 10 uM

CC[C@H]1OC(=O)[C@H](C)[C@@H](O[C@H]2CC(NC)[C@H](O)C(C)O2)[C@H](C)[C@@H](O)[C@](C)(O)C[C@@H](C)C(=O)[C@H](C)[C@@H](O)[C@H]1C (some centres unmarked) [Compound 6]
half-life at 1 uM [2]: 1.82 h
antibacterial activity against the bacterial strains tested (in words) [1]: no antibacterial activity

CC[C@H]1OC(=O)[C@H](C)[C@@H](O[C@H]2CC(N(C)C)[C@H](O)C(C)O2)[C@H](C)[C@@H](O)[C@](C)(O)C[C@@H](C)C(=O)[C@H](C)[C@@H](O)[C@H]1C (some centres unmarked) [Compound 3]
TLR2 stimulation (in words) (human TLR2): little or no stimulation
antibacterial activity against the bacterial strains tested (in words) [1]: no antibacterial activity

CC1O[C@@H](O[C@H]2[C@H](C)[C@@H](O)[C@](C)(O)C[C@@H](C)C(=O)[C@H](C)[C@@H](O)[C@@H](C)[C@@H](C3CCC3)OC(=O)[C@@H]2C)CC(N(C)C)[C@@H]1O (some centres unmarked) [Compound 5]
antibacterial activity against the bacterial strains tested (in words) [1]: no antibacterial activity

CC(O)[C@H]1OC(=O)[C@H](C)[C@@H](O[C@H]2C[C@@H](N(C)C)[C@H](O)[C@@H](C)O2)[C@H](C)[C@@H](O)[C@](C)(O)C[C@@H](C)C(=O)[C@H](C)[C@@H](O)[C@H]1C (some centres unmarked) [Compound 9, 14-hydroxy angolosamine erythronolide B]
half-life at 1 uM [2]: 1.67 h
antibacterial activity against the bacterial strains tested (in words) [1]: no antibacterial activity

CC[C@H]1OC(=O)[C@H](C)[C@@H](O[C@H]2C[C@@](C)(OC)[C@@H](O)[C@H](C)O2)[C@H](C)[C@@H](O[C@@H]2O[C@H](C)C[C@H](N(C)C)[C@H]2O)[C@](C)(O)C[C@@H](C)C(=O)[C@H](C)[C@@H](O)[C@]1(C)O [Erythromycin, reference compound]
half-life at 1 uM [2]: 0.517 h
TLR2 stimulation (in words) (human TLR2): little or no stimulation
antibacterial activity against the bacterial strains tested (in words) [1]: potent activity

CC[C@H]1OC(=O)[C@H](C)[C@@H](O[C@H]2CC(N(C)C)[C@H](O)C(C)O2)[C@H](C)[C@@H](O)[C@](C)(O)C[C@@H](C)C(O)[C@H](C)[C@@H](O)[C@H]1C (some centres unmarked) [Compound 7]
half-life at 1 uM [2]: 0.933 h
antibacterial activity against the bacterial strains tested (in words) [1]: no antibacterial activity

CC[C@H]1OC(=O)[C@H](C)[C@@H](O[C@H]2CC(N(C)C)[C@H](O)C(C)O2)[C@H](C)[C@@H](O)[C@](C)(O)C[C@@H](C)CN(C)[C@H](C)[C@@H](O)[C@H]1C (some centres unmarked) [Compound 4]
antibacterial activity against the bacterial strains tested (in words) [1]: no antibacterial activity

From patent US20210040134A1, “COMBINATIONS OF MACROLIDE COMPOUNDS AND IMMUNE CHECKPOINT INHIBITORS” (ISR IMMUNE SYSTEM REGULATION HOLDING AB (PUBL), priority 2018, published 2021)
